Test results taken from patent publication US11944688B2, “Biologically active compounds” (SUTURA THERAPEUTICS LTD, priority 2015, dated 2024).
Positions of bridges follow the written chain, without caps; N, C: chain ends. Non-standard residues stand in square brackets, D forms with d. No end group written: not given here. {FITC} = fluorescein isothiocyanate label; S5 = C=CCCC[C@](C)(N)C(=O)O; {NH2} = amine group

How the values were obtained:
[1] = test system: HEK293T cells; assay: Uptake into HEK293T cells by flow cytometry; assay type: cell-based, human; settings: 4 hours
Description: FIG. 11 is the analysis of PMO uptake into HEK293T cells by flow cytometry. Cells were incubated without PMO or with 1 μM PMO, 1 μM PMO-C8M or 1 μM PMO-CP8M-NC (all fluorescein-labelled) at 37° C. for 4 hours. Fluorescence was measured after washing the cells with PBS.
HEK293T cells (Human embryonic kidney) were cultured in high glucose DMEM supplemented with 10% foetal calf serum (Sigma, UK) at 37° C. under an 8% CO2/92% air atmosphere.
(§1) U2OS cells were incubated with PMO or PMO-CP8M at increasing concentration (0.5 μM, 1.0 μM, 5.0 μM and 10 μM) with […] transfection reagent; H2K mdx mouse myoblasts were incubated with PMO or PMO-CP8M at 5.0 μM: HEK293T cells were incubated with CP8M (1.0 μM, 10 μM and 100 μM) and PMO, PMO-CP8M-NC, PMO-C8M at 1.0 μM. Levels of fluorescence was quantified at 494 nm to determine relative entry of respective compounds by microscopic or flow cytometry methodologies.
Uptake of fluorescently-labelled PMO was determined by flow cytometry using an Accuri C6 flow cytometer. PMO-transfected cells were released with trypsin, washed in PBS and kept on ice before analysis. Cell fluorescence in single live cells was determined using FlowJo software after appropriate gating. Untreated cells were used to establish gating settings for the determination of the % fluorescein-positive cells.

[2] = test system: dystrophin; assay: Dystrophin immunostaining of Tibialis anterior after intramuscular injection in mdx mice; assay type: in vivo; settings: single intramuscular 2.2 nmol, 7 days post-administration, n=4
Description: Muscles were recovered 7 day post administration;
All dose are given in respect of the molarity of PMO;
(§2) mdx mice, with access to chow and water ad libitum, were used in all experiments. All experiments were carried out in the Animal unit, School of Biological Science, University of Reading, Reading, UK according to procedures authorized by the UK Home Office. Mice were killed by CO2 inhalation or cervical dislocation at desired time points, and muscles and other tissues were snap-frozen in liquid nitrogen-cooled isopentane and stored at −80° C.
(§3) Intramuscular administrations: Tibialis anterior muscles of mdx mice were injected with either 2.2 nmol PMO or 2.2 nmol PMO-CP8M under isoflurane anaesthesia. […]
(§4) For skeletal muscle, heart and brain, […] cryosections were cut and dystrophin protein was detected using rabbit polyclonal antibody to dystrophin (ab15277; Abcam, Cambridge, UK). […] For liver, […] cryosections were dried and embedded in fluorescence-compatible mounting medium (Dako), and general fluorescence was assessed microscopically at 494 nm.

[3] = test system: U2OS cells; assay: Delivery of fluorescently labelled PMO into U2OS cells, fluorescence microscopy; assay type: cell-based, human; settings: 0.5-10 μM, 4 hours, without transfection reagent
Description: The biologically active compound was a PMO with a sequence:
(an antisense reagent targeted to exon 23 of the mouse dystrophin gene, that causes the exclusion of exon 23 during mRNA splicing maturation); the bi-functional linker was a PEGylated SMCC; and the StaP was RKF-S5-RLF-S5 (SEQ ID NO: 57). This configuration of DCCPM is depicted as PMO-CP8M in the subsequent figs; unconjugated PMO acts as a control. All compounds were added to U2OS cells maintained in culture, without transfection reagent for 4 hours;
U2OS cells (Human osteosarcoma) were cultured in high glucose DMEM supplemented with 10% foetal calf serum (Sigma, UK) at 37° C. under an 8% CO2/92% air atmosphere.
as §1

[4] = test system: dystrophin; assay: Dystrophin immunostaining of heart muscle after intraperitoneal administration in mdx mice; assay type: in vivo
Text: FIG. 18a is of mdx mice following a single intraperitoneal injection of 1 μmol/kg PMO-CP8M or 1 μmol/kg PMO. Muscles were recovered 7 days post administration;
FIG. 18b is following multiple intraperitoneal injections—total 7.6 μmol/kg PMO-CP8M or 7.6 μmol/kg PMO. Muscles were recovered 14 days post administration;
FIG. 18c is following multiple intraperitoneal injections—total 10.9 μmol/kg PMO-CP8M or 10.9 μmol/kg PMO;
FIG. 18d is a graphical representation of the number of cardiac muscle fibre being positive for an immuno-cytochemical staining for dystrophin following a multiple intraperitoneal injections—total 7.6 μmol/kg PMO-CP8M or 7.6 μmol/kg PMO; and
FIG. 18e is a graphical representation of the number of cardiac muscle fibre being positive for an immuno-cytochemical staining for dystrophin following multiple intraperitoneal injections—total 10.9 μmol/kg PMO-CP8M or 10.9 μmol/kg PMO. All dose are given in respect of the molarity of PMO [* denotes non fluorescent labelled PMO]. Hearts were recovered 14 days post administration;
Hearts were recovered 14 days post administration;
as §2, §3, §4

[5] = test system: dystrophin; assay: Dystrophin immunostaining of cerebellum after systemic administration in mdx mice; assay type: in vivo; settings: single 1 μmol/kg intravenous, without fluorescent label, 7 days, n=1 per group
Description: All dose are given in respect of the molarity of PMO [* denotes non fluorescent labelled PMO]. Cerebella were recovered 7 days post administration; and
as §2, §3, §4

[6] = test system: H2K mdx mouse myoblasts; assay: Delivery of fluorescently labelled PMO into H2K mdx myoblasts, fluorescence microscopy; assay type: cell-based; settings: 5 μM, without transfection reagent
Description: (§5) H2K mdx mouse myoblasts were cultured at 33° C. under a 8% CO2/92% air atmosphere in high-glucose DMEM supplemented with 20% foetal calf serum, 0.5% chicken embryo extract (PAA laboratories Ltd, Yeovil, UK), and 20 units/ml γ-interferon (Roche applied science, Penzberg, Germany). Cells were then treated with trypsin and plated at 8×10^4/cm^2 in 24-well plates coated with 0.1 mg/ml ECM gel (Sigma). H2K mdx cells were transfected 24 h after seeding with treatment in a final volume of 0.2 ml of normal growth media. Following 4 hours of transfection, the PMO or PMO-SAP was removed and replaced with DMEM supplemented with 5% horse serum. Fluorescence and RNA extraction was performed 48 hours post transfection.
as §1

[7] = test system: exon 23 of the mouse dystrophin gene; assay: Exon 23 exclusion in H2K mdx cells, nested RT-PCR; assay type: cell-based; settings: 5 μM, RT-PCR 901 bp full length / 688 bp exon 23 excluded
Description: 24 hours after incubation with PMO-CP8M or PMO, H2K mdx cells were recovered and RNA isolated. The RNA was reversed transcribed and an amplification between exon 20 and 26 of the mouse dystrophin gene, followed by a nested amplification between exon 20 and 26 was performed to yield a full length product of 901 bp fragment if exon 23 is present or 688 bp fragment if exon 23 is excluded;
as §5
Total RNA was isolated from H2K mdx mouse myoblasts cells (RNeasy, Qiagen, UK). […]

| Substance | cellular entry of FITC-labelled CP8M charge variants ([1]; HEK293T, 1.0, 10 and 100 μM, without transfection reagent) | percentage of dystrophin re-expression [2] | fluorescence signal (cell entry) [3] | cell entry of fluorescein-labelled PMO ([1]; HEK293T, 1 μM, 37° C.) | dystrophin-positive heart muscle fibres, 7.6 μmol/kg ([4]; intraperitoneal total 7.6 μmol/kg over 4 days, without fluorescent label, 2 weeks post-administration, n=4, mean±SEM) [fibres] | dystrophin-positive heart muscle fibres, 10.9 μmol/kg ([4]; intraperitoneal total 10.9 μmol/kg over 2 days, n=4, mean±SEM) [fibres] | dystrophin-positive heart muscle fibres, single low dose ([4]; single intraperitoneal 1 μmol/kg, 7 days, n=1 per group) | dystrophin expression in Purkinje cells of cerebellum [5] | muscle cell entry [6] | exclusion of exon 23 from the dystrophin transcript [7] |
| --- | --- | --- | --- | --- | --- | --- | --- | --- | --- | --- |
| CP8M: CPP sequence RKF-S5-RLF-S5 (SEQ ID NO: 57) with PEGylated SMCC as BFL (RKF[S5]RLF[S5]-NH2; staple 4-8; also: PEGylated SMCC as BFL, attachment not given here) | dose dependent increase |  |  |  |  |  |  |  |  |  |
| PMO: PMO 5′GGCCAAACCTCGGCTTACCTGAAAT3′ targeted to exon 23 of mouse dystrophin gene; 5′ amine, 3′ FITC label; unconjugated control (all phosphorodiamidate morpholino (PMO), 5' {NH2}, 3' {FITC}) |  | 762.25 | only a background fluorescence signal | refractory to cell entry | 57±17 | 33±8 | not | No dystrophin expression was observed | refractory to muscle cell entry | lack of exon exclusion |
